Experimental data taken from US20230416248A1, “COMPOUNDS AND USES THEREOF” (Foghorn Therapeutics Inc., priority 2020, published 2023).
Like-named read-outs stand apart in the source and are kept apart here.

Experiments:
BRG-1 = target: T1, BRG-1 (Homo sapiens, UniProt P51532); assay: ATPase catalytic activity of BRG-1, ADP-Glo in vitro biochemical assay; details: 30 nM BRG-1, 400 μM ATP, read-out: BRG1 IC50
T1 construct: made in house; host or cells: High Five insect cells
Method in brief: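 BRG-1 ATPase activity was measured in vitro by ADP-Glo. After the reaction, ADP-Glo Reagent depleted unconsumed ATP (40 min, room temperature), then Kinase Detection Reagent converted product ADP to ATP (60 min, room temperature), and luciferase luminescence was read.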

BRM = target: T2, BRM (Homo sapiens, UniProt P51531); assay: ATPase catalytic activity of BRM, ADP-Glo in vitro biochemical assay; details: for IC50: 30 nM BRM, 400 μM ATP
T2 construct: made in house; host or cells: High Five insect cells
Method in brief: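 Recombinant BRM (30 nM) hydrolysed 400 μM ATP with 20 nM salmon sperm DNA in pH 8 Tris buffer containing 20 mM MgCl2, 50 mM NaCl, 0.1% Tween-20 and 1 mM DTT, 1 h at room temperature. ADP formed was quantified by ADP-Glo luminescence.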

[1] = ATPase catalytic activity, ADP-Glo

T1 sequence (P51532 whole entry): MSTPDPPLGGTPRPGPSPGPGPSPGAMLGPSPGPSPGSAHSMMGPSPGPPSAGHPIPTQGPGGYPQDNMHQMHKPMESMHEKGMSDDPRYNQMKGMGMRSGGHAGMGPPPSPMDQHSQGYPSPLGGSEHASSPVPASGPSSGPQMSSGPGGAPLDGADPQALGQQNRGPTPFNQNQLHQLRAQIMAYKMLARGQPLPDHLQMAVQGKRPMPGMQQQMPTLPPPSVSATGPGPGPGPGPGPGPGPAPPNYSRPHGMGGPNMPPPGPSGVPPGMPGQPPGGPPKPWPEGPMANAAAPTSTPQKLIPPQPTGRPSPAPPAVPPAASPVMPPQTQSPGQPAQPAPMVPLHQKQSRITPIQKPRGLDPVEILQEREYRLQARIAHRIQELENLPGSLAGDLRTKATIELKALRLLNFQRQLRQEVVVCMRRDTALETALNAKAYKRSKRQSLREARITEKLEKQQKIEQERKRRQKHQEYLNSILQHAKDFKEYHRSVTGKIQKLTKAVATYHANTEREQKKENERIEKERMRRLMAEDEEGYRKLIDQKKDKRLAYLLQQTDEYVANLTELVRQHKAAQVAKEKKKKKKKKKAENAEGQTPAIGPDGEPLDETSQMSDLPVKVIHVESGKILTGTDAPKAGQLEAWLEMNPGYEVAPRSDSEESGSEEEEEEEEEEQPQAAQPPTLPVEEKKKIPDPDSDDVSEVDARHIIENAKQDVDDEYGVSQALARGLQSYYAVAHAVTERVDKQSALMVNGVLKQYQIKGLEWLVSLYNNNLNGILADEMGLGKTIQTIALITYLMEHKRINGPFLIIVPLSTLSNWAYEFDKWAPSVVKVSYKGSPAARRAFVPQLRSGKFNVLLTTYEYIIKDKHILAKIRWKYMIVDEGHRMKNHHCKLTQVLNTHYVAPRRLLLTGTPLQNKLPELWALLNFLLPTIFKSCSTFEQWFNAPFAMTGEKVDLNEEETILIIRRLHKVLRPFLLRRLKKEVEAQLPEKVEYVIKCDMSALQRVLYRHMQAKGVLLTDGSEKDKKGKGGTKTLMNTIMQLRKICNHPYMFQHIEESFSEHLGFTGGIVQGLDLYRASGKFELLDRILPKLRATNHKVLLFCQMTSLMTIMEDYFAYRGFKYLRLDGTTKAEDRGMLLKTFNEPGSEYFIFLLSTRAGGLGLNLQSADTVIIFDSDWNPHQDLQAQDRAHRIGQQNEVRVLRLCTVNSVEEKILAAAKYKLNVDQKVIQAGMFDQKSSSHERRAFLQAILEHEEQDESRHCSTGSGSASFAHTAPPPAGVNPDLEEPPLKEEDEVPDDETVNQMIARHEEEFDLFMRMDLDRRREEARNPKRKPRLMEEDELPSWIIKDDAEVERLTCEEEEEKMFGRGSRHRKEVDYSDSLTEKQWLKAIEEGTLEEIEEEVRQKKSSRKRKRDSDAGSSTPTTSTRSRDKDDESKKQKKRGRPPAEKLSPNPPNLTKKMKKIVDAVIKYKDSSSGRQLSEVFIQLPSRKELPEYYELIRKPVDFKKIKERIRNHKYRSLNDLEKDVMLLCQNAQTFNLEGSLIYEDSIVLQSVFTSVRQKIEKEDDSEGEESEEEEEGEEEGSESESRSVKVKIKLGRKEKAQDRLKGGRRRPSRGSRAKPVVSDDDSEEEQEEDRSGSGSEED
T2 sequence (P51531 whole entry): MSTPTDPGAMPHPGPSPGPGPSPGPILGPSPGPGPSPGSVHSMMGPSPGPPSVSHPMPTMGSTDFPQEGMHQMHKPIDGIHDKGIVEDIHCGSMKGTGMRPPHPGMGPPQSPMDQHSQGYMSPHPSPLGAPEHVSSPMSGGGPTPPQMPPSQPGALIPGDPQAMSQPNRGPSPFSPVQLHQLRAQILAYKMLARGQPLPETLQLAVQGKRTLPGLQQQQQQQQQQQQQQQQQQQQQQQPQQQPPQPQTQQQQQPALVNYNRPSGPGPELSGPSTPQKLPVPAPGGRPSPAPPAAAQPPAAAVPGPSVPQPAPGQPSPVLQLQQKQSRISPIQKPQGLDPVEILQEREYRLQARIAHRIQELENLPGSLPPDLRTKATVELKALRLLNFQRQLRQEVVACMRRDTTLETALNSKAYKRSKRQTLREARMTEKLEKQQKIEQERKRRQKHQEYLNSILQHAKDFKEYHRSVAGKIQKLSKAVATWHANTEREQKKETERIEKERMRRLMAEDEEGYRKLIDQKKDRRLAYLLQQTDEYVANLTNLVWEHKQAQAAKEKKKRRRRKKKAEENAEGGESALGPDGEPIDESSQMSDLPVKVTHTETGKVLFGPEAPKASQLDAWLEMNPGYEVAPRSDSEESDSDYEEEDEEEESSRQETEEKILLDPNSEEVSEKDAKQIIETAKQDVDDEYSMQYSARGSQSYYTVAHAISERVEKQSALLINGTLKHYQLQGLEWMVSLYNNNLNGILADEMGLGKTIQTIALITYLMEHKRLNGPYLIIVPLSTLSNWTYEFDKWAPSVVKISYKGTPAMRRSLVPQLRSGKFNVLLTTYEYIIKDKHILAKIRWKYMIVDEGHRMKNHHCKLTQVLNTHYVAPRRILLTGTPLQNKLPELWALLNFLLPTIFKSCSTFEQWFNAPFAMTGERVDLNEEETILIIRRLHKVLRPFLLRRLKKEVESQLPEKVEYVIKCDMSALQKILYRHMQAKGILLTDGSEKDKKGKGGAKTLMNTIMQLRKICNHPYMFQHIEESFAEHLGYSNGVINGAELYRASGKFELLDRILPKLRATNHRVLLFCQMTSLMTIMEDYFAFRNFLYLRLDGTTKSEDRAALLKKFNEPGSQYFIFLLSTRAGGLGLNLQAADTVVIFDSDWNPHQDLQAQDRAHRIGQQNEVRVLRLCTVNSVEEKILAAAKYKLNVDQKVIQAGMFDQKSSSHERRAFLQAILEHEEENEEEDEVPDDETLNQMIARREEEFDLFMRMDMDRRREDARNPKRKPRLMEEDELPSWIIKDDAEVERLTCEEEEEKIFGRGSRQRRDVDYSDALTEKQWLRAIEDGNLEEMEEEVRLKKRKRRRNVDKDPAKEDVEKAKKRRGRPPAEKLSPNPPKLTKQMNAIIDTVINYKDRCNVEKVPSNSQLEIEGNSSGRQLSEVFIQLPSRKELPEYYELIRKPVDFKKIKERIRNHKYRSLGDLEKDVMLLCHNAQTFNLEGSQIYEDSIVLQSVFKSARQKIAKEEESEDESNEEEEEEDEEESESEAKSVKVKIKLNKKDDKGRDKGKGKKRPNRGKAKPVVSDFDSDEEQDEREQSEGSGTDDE

Row | SMILES | IC50 (BRG-1; [1]) | IC50 (BRM; [1]) | Ratio* (BRM; ratio of BRG1 IC50 to BRM IC50) | IC50 (BRG-1; ADP-Glo ATPase assay) | IC50 (BRM; ADP-Glo ATPase assay) | Ratio* (BRM; ratio BRG1 IC50 / BRM IC50)
1 | O=C(NCc1cc2nc(N3CCCc4ccc([C@H]5CC5(F)F)nc43)ccc2cn1)c1ccc2c(c1)S(=O)(=O)CCOC2 [Compound 690] | 1290 nM | 23.5 nM | 54.81 | – | – | –
2 | O=C(NCc1cc2nc(N3CCOc4cc(Cl)cnc43)ccc2cn1)c1cc(F)c2c(c1)S(=O)(=O)CCOC2 [Compound 691] | 159 nM | 9.5 nM | 16.64 | – | – | –
3 | O=C(NCc1cc2nc(N3CCCc4ccc(OC5COC5)cc43)ccc2cn1)c1ccc2c(c1)S(=O)(=O)CCOC2 [Compound 692] | 84.9 nM | 6 nM | 14.09 | – | – | –
4 | C[C@H]1CCN(C)c2nc(-c3ccc4cnc(CNC(=O)c5ccc6c(c5)S(=O)(=O)CCOC6)cc4n3)ccc21 [Compound 694] | 287 nM | 34.2 nM | 8.38 | – | – | –
5 | C[C@@H]1CCN(C)c2nc(-c3ccc4cnc(CNC(=O)c5ccc6c(c5)S(=O)(=O)CCOC6)cc4n3)ccc21 [Compound 695] | 420 nM | 43.3 nM | 9.72 | – | – | –
6 | COC[C@@H](C)Oc1ccc2c(c1)N(c1ccc3cnc(CNC(=O)c4ccc5c(c4)S(=O)(=O)CCOC5)cc3n1)CCC2 [Compound 696] | 128 nM | 6.8 nM | 18.76 | – | – | –
7 | COC[C@H](C)Oc1ccc2c(c1)N(c1ccc3cnc(CNC(=O)c4ccc5c(c4)S(=O)(=O)CCOC5)cc3n1)CCC2 [Compound 697] | 37.9 nM | 4.9 nM | 7.66 | – | – | –
8 | O=C(NCc1cc2nc(N3CCOc4cc(Cl)c(C5CC5)nc43)ccc2cn1)c1ccc2c(c1)S(=O)(=O)CCOC2 [Compound 698] | 4720 nM | 193 nM | 24.47 | – | – | –
9 | CN1CCC2(c3cccc(-c4ccc5cnc(CNC(=O)c6ccc7c(c6)S(=O)(=O)CCOC7)cc5n4)n3)CC2C1 (centres unmarked) [Compound 699] | 2210 nM | 275 nM | 8.04 | – | – | –
10 | O=C(NCc1cc2nc(N3CCOc4ccc([C@H]5CC5(F)F)nc43)ccc2cn1)c1ccc2c(c1)S(=O)(=O)CCOC2 [Compound 700] | 758 nM | 14.5 nM | 52.11 | – | – | –
11 | COCCn1cc2cccc(-c3ccc4cnc(CNC(=O)c5ccc6c(c5)S(=O)(=O)CCOC6)cc4n3)c2n1 [Compound 701] | 868 nM | 87.2 nM | 9.96 | – | – | –
12 | O=C(NCc1cc2nc(N3CCOc4ccc([C@@H]5CC5(F)F)nc43)ccc2cn1)c1ccc2c(c1)S(=O)(=O)CCOC2 [Compound 702] | 960 nM | 10.2 nM | 93.83 | – | – | –
13 | COc1cnc2c(c1)CCN2c1ccc2cnc(CNC(=O)c3ccc4c(c3)S(=O)(=O)CCOC4)cc2n1 [Compound 703] | – | – | – | 298 nM | 36.8 nM | 8.10
14 | C[C@@H]1CN(c2cccc(-c3ccc4cnc(CNC(=O)c5ccc6c(c5)S(=O)(=O)CCC5(CC5)O6)cc4n3)n2)C[C@H](C)O1 [Compound 704] | – | – | – | 2110 nM | 91.1 nM | 23.18
15 | CO[C@H](C)COc1ccc2c(c1)N(c1ccc3cnc(CNC(=O)c4ccc5c(c4)S(=O)(=O)CCOC5)cc3n1)CCC2 [Compound 705] | – | – | – | 58.1 nM | 4.3 nM | 13.63
16 | CO[C@@H](C)COc1ccc2c(c1)N(c1ccc3cnc(CNC(=O)c4ccc5c(c4)S(=O)(=O)CCOC5)cc3n1)CCC2 [Compound 706] | – | – | – | 46.9 nM | 5 nM | 9.39
17 | C[C@@H]1CN(c2ccnc(-c3ccc4cnc(CNC(=O)c5ccc6c(c5)S(=O)(=O)CCOC6)cc4c3)n2)C[C@H](C)O1 [Compound 707] | – | – | – | 264 nM | 54.6 nM | 4.84
18 | C[C@@H]1CN(c2ccnc(-c3ccc4cnc(CNC(=O)c5ccc6c(c5)S(=O)(=O)[C@@H](C)COC6)cc4c3)n2)C[C@H](C)O1 [Compound 708] | – | – | – | 907 nM | 52.9 nM | 17.15
19 | C[C@H]1COCc2ccc(C(=O)NCc3cc4nc(-c5cccc(N6C[C@H]7COC[C@H]7C6)n5)ccc4cn3)cc2S1(=O)=O [Compound 709] | – | – | – | 436 nM | 37.6 nM | 11.57

Row | SMILES | IC50 (BRG-1; [1]) | IC50 (BRM; [1]) | Ratio* (BRM; ratio of BRG1 IC50 to BRM IC50) | IC50 (BRG-1; ADP-Glo ATPase assay) | IC50 (BRM; ADP-Glo ATPase assay) | Ratio* (BRM; ratio BRG1 IC50 / BRM IC50)
20 | C[C@@H]1CN(c2cccc(-c3cnc4cnc(CNC(=O)c5ccc6c(c5)S(=O)(=O)[C@@H](C)COC6)cc4n3)n2)C[C@H](C)O1 [Compound 710] | – | – | – | 153 nM | 29.8 nM | 5.13
21 | COCc1ccc2c(c1F)N(c1ccc3cnc(CNC(=O)c4ccc5c(c4)S(=O)(=O)CCOC5)cc3n1)CCC2 [Compound 711] | – | – | – | 255 nM | 9.3 nM | 27.53
22 | CC1(c2cnc3c(c2)OCCN3c2ccc3cnc(CNC(=O)c4ccc5c(c4)S(=O)(=O)CCOC5)cc3n2)CC1 [Compound 712] | – | – | – | 102 nM | 8.6 nM | 11.90
23 | CC1(c2ccc3c(n2)N(c2ccc4cnc(CNC(=O)c5ccc6c(c5)S(=O)(=O)CCOC6)cc4n2)CCO3)CC1 [Compound 713] | – | – | – | 987 nM | 45.9 nM | 21.51
24 | COc1cc2c(cc1F)CCCN2c1ccc2cnc(CNC(=O)c3ccc4c(c3)S(=O)(=O)CCOC4)cc2n1 [Compound 714] | – | – | – | 667 nM | 54.9 nM | –
25 | [2H]C1([2H])OC([2H])([2H])[C@H](C)S(=O)(=O)c2cc(C(=O)NCc3cc4nc(-c5cccc(N6C[C@@H](C)O[C@@H](C)C6)n5)ccc4cn3)ccc21 [Compound 715] | – | – | – | 22.1 nM | 5.4 nM | 4.12
26 | COCC1CN(c2ccc3cnc(CNC(=O)c4ccc5c(c4)S(=O)(=O)CCOC5)cc3n2)c2ccccc2O1 (centres unmarked) [Compound 716] | – | – | – | 4770 nM | 1730 nM | 2.75
27 | [2H]C1([2H])OC([2H])([2H])[C@@H](C)S(=O)(=O)c2cc(C(=O)NCc3cc4nc(-c5cccc(N6C[C@@H](C)O[C@@H](C)C6)n5)ccc4cn3)ccc21 [Compound 717] | – | – | – | 432 nM | 77 nM | 5.61
28 | COc1ccc(F)c2c1CCCN2c1ccc2cnc(CNC(=O)c3ccc4c(c3)S(=O)(=O)CCOC4)cc2n1 [Compound 718] | – | – | – | 99.6 nM | 10.5 nM | 9.44
29 | COc1cc2c(cn1)N(c1ccc3cnc(CNC(=O)c4ccc5c(c4)S(=O)(=O)CCOC5)cc3n1)CCC2 [Compound 719] | – | – | – | 580 nM | 42.6 nM | 13.62
30 | O=C(NCc1cc2nc(N3CCc4cc(C(F)F)cnc43)ccc2cn1)c1ccc2c(c1)S(=O)(=O)CCOC2 [Compound 720] | – | – | – | 231 nM | 43.6 nM | 5.30
31 | O=C(NCc1cc2nc(N3CCOc4ccc(C5CCC5)nc43)ccc2cn1)c1ccc2c(c1)S(=O)(=O)CCOC2 [Compound 722] | – | – | – | 716 nM | 8.8 nM | 81.47
32 | O=C(NCc1cc2nc(N3CCC4(CCC4)c4cccnc43)ccc2cn1)c1ccc2c(c1)S(=O)(=O)CCOC2 [Compound 723] | – | – | – | 667 nM | 40.2 nM | 16.58
33 | CS(=O)(=O)c1cc(C(=O)NCc2cc3nc(N4CCCc5cc(C6CC6)cnc54)ccc3cn2)cnc1C(F)F [Compound 724] | – | – | – | 2250 nM | 122 nM | 18.41
34 | O=C(NCc1cc2nc(N3CCCc4cc(C5CC5)ncc43)ccc2cn1)c1ccc2c(c1)S(=O)(=O)CCOC2 [Compound 725] | – | – | – | 294 nM | 26.8 nM | 10.95
35 | O=C(NCc1cc2nc(N3CCCc4cc(F)c(OCC5COC5)cc43)ccc2cn1)c1ccc2c(c1)S(=O)(=O)CCOC2 [Compound 726] | – | – | – | 292 nM | 24.7 nM | 11.83
36 | O=C(NCc1cc2nc(N3CCc4cc(F)cnc43)ccc2cn1)c1ccc2c(c1)S(=O)(=O)CCOC2 [Compound 727] | – | – | – | 1220 nM | 103 nM | 11.84
37 | Cc1cc(C(=O)NCc2cc3cc(-c4cccc(N5C[C@@H](C)O[C@@H](C)C5)n4)ccc3cn2)cc2c1COCCS2(=O)=O [Compound 728] | – | – | – | 29.6 nM | 12.3 nM | 2.42
